This experiment has as its target human GPR43 (Homo sapiens (Human), UniProt O15552). Put plainly: Ca-Flux functional assay: determination of agonist/positive allosteric modulator (PAM) activity. Type of experiment: cell-based. The following applies: CHO-K1 Gα16 cells stably expressing human GPR43; compound added with EC20 sodium acetate; intracellular Ca2+ by FLIPR; does not distinguish agonist from PAM. The gist of the method:
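CHO-K1 Gα16 cells stably expressing human GPR43, loaded with Calcium 5 dye 1 h; compounds (10-point half-log from 10 μM) added with sodium acetate at EC20. FLIPR calcium signal gave EC50, two wells per point; agonists and PAMs not distinguished.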
Sequence of human GPR43 (O15552 whole entry): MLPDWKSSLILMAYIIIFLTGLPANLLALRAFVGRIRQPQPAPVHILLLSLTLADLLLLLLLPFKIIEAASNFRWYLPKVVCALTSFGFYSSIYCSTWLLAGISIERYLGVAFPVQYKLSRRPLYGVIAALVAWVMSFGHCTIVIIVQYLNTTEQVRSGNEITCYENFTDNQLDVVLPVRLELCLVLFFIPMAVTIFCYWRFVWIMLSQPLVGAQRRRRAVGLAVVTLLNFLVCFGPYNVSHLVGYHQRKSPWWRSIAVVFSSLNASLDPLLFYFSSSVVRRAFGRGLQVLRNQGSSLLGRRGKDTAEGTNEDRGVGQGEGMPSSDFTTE
`CN(c1ncnc2c(S(=O)(=O)c3ccccc3)c(N)[nH]c12)C1CC1` [Example 98, 7-(benzenesulfonyl)-4-N-cyclopropyl-4-N-methyl-5H-pyrrolo[3,2-d]pyrimidine-4,6-diamine] showed an EC50 of 0.648 µM.

The molecule `Cc1cc(CN(C)c2ncnc3c(S(=O)(=O)c4ccccc4)c(N)[nH]c23)no1` [Example 99, 7-(benzenesulfonyl)-4-N-methyl-4-N-[(5-methyl-1,2-oxazol-3-yl)methyl]-5H-pyrrolo[3,2-d]pyrimidine-4,6-diamine] came in with an EC50 of 4.67 µM.

The molecule `C=C(C)c1cncc2c(S(=O)(=O)c3ccccc3)c(N)[nH]c12` [Example 100, 3-(benzenesulfonyl)-7-(prop-1-en-2-yl)-1H-pyrrolo[3,2-c]pyridin-2-amine] registered an EC50 of 0.145 µM.

In turn, `CC(C)CC1CN(c2ncnc3c(S(=O)(=O)c4ccccc4)c(N)[nH]c23)CCO1` (stereo not drawn) [Example 101, 7-(benzenesulfonyl)-4-[2-(2-methylpropyl)morpholin-4-yl]-5H-pyrrolo[3,2-d]pyrimidin-6-amine] yielded an EC50 of 0.031 µM.

The molecule `Nc1[nH]c2c(N3CCOC4(CCCC4)C3)ncnc2c1S(=O)(=O)c1ccccc1` [Example 102, 7-(benzenesulfonyl)-4-{6-oxa-9-azaspiro[4.5]decan-9-yl}-5H-pyrrolo[3,2-d]pyrimidin-6-amine] came in with an EC50 of 0.018 µM.

On to `CCC1(CC)CN(c2ncnc3c(S(=O)(=O)c4ccccc4)c(N)[nH]c23)CCO1` [Example 103, 7-(benzenesulfonyl)-4-(2,2-diethylmorpholin-4-yl)-5H-pyrrolo[3,2-d]pyrimidin-6-amine], for which the EC50 is 0.036 µM.

In turn, `Cc1ccc(-c2ncnc3c(S(=O)(=O)c4ccccc4)c(N)[nH]c23)cc1` [Example 104, 7-(benzenesulfonyl)-4-(4-methylphenyl)-5H-pyrrolo[3,2-d]pyrimidin-6-amine] registered an EC50 of 0.059 µM.

`COC1CCCN(c2ncnc3c(S(=O)(=O)c4ccccc4)c(N)[nH]c23)C1` (stereo not drawn) [Example 105, 7-(benzenesulfonyl)-4-(3-methoxypiperidin-1-yl)-5H-pyrrolo[3,2-d]pyrimidin-6-amine] returned an EC50 of 0.207 µM.

As to `COc1ccc(S(=O)(=O)c2c(N)[nH]c3c(N4CCCC(C)C4)ncnc23)cc1` (stereo not drawn) [Example 106, 7-(4-methoxybenzenesulfonyl)-4-(3-methylpiperidin-1-yl)-5H-pyrrolo[3,2-d]pyrimidin-6-amine], the midpoint of the response, the EC50, lay at 0.015 µM.

With `COc1ccc(S(=O)(=O)c2c(N)[nH]c3c(N4CCOC(C)C4)ncnc23)cc1` (stereo not drawn) [Example 107, 7-(4-methoxybenzenesulfonyl)-4-(2-methylmorpholin-4-yl)-5H-pyrrolo[3,2-d]pyrimidin-6-amine], the response was half-maximal at 0.041 µM (EC50).

As to `Cc1ccccc1-c1ncnc2c(S(=O)(=O)c3ccccc3)c(N)[nH]c12` [Example 108, 7-(benzenesulfonyl)-4-(2-methylphenyl)-5H-pyrrolo[3,2-d]pyrimidin-6-amine], the half-maximal effective concentration (EC50) came out at 0.092 µM.

`Nc1[nH]c2c(C3=CCCCC3)ncnc2c1S(=O)(=O)CC1CCOCC1` [Example 109, 4-(cyclohex-1-en-1-yl)-7-(oxan-4-ylmethanesulfonyl)-5H-pyrrolo[3,2-d]pyrimidin-6-amine] had an EC50 of 5.02 µM.

As to `Cc1nc(N2CCCC(C)C2)c2[nH]c(N)c(S(=O)(=O)c3ccccc3)c2n1` (stereo not drawn) [Example 110, 7-(benzenesulfonyl)-2-methyl-4-(3-methylpiperidin-1-yl)-5H-pyrrolo[3,2-d]pyrimidin-6-amine], the EC50 was 0.032 µM.

With `Cc1nc(N2CCOC(C)C2)c2[nH]c(N)c(S(=O)(=O)c3ccccc3)c2n1` (stereo not drawn) [Example 111, 7-(benzenesulfonyl)-2-methyl-4-(2-methylmorpholin-4-yl)-5H-pyrrolo[3,2-d]pyrimidin-6-amine], the 50% effective concentration (EC50) was found to be 0.019 µM.

`COCC1CCN(c2ncnc3c(S(=O)(=O)c4ccccc4)c(N)[nH]c23)CC1` [Example 112, 7-(benzenesulfonyl)-4-[4-(methoxymethyl)piperidin-1-yl]-5H-pyrrolo[3,2-d]pyrimidin-6-amine] returned an EC50 of 0.818 µM.

Turning to `CCOC1CCCN(c2ncnc3c(S(=O)(=O)c4ccccc4)c(N)[nH]c23)C1` (stereo not drawn) [Example 113, 7-(benzenesulfonyl)-4-(3-ethoxypiperidin-1-yl)-5H-pyrrolo[3,2-d]pyrimidin-6-amine], the EC50 is 0.858 µM.

As to `Nc1[nH]c2c(N3CCCC(n4cccn4)C3)ncnc2c1S(=O)(=O)c1ccccc1` (stereo not drawn) [Example 114, 7-(benzenesulfonyl)-4-[3-(1H-pyrazol-1-yl)piperidin-1-yl]-5H-pyrrolo[3,2-d]pyrimidin-6-amine], the EC50 amounted to 1.11 µM.

For `CN(c1ncnc2c(S(=O)(=O)c3ccccc3)c(N)[nH]c12)C1CCOCC1` [Example 115, 7-(benzenesulfonyl)-4-N-methyl-4-N-(oxan-4-yl)-5H-pyrrolo[3,2-d]pyrimidine-4,6-diamine], a half-maximal effect (EC50) was put at 0.798 µM.

For `Nc1[nH]c2c(N3CCC(OCC4CC4)CC3)ncnc2c1S(=O)(=O)c1ccccc1` [Example 116, 7-(benzenesulfonyl)-4-[4-(cyclopropylmethoxy)piperidin-1-yl]-5H-pyrrolo[3,2-d]pyrimidin-6-amine], a half-maximal response (EC50) required 0.08 µM.

For the molecule `COC1CCN(c2ncnc3c(S(=O)(=O)c4ccccc4)c(N)[nH]c23)C1` (stereo not drawn) [Example 117, 7-(benzenesulfonyl)-4-(3-methoxypyrrolidin-1-yl)-5H-pyrrolo[3,2-d]pyrimidin-6-amine], a half-maximal effect (EC50) was put at 3.32 µM.

In turn, `COC[C@H]1CCCN1c1ncnc2c(S(=O)(=O)c3ccccc3)c(N)[nH]c12` [Example 118, 7-(benzenesulfonyl)-4-[(2R)-2-(methoxymethyl)pyrrolidin-1-yl]-5H-pyrrolo[3,2-d]pyrimidin-6-amine] showed an EC50 of 5.18 µM.

`Nc1[nH]c2c(OCC3CCOC3)ncnc2c1S(=O)(=O)c1ccccc1` (stereo not drawn) [Example 119, 7-(benzenesulfonyl)-4-(oxolan-3-ylmethoxy)-5H-pyrrolo[3,2-d]pyrimidin-6-amine] gave an EC50 of 2.96 µM.

The molecule `Cc1ccccc1S(=O)(=O)c1c(N)[nH]c2c(N3CCOC(C)C3)ncnc12` (stereo not drawn) [Example 120, 7-(2-methylbenzenesulfonyl)-4-(2-methylmorpholin-4-yl)-5H-pyrrolo[3,2-d]pyrimidin-6-amine] showed an EC50 of 0.131 µM.

In turn, `Cc1cccc(S(=O)(=O)c2c(N)[nH]c3c(N4CCOC(C)C4)ncnc23)c1` (stereo not drawn) [Example 121, 7-(3-methylbenzenesulfonyl)-4-(2-methylmorpholin-4-yl)-5H-pyrrolo[3,2-d]pyrimidin-6-amine] displayed an EC50 of 0.067 µM.

On to `CC1CN(c2ncnc3c(S(=O)(=O)c4cccnc4)c(N)[nH]c23)CCO1` (stereo not drawn) [Example 122, 4-(2-methylmorpholin-4-yl)-7-(pyridine-3-sulfonyl)-5H-pyrrolo[3,2-d]pyrimidin-6-amine], for which a half-maximal effect (EC50) was put at 0.625 µM.

In turn, `COc1ccc(S(=O)(=O)c2c(N)[nH]c3c(N4CCOC(C)C4)ncnc23)cc1Cl` (stereo not drawn) [Example 123, 7-(3-chloro-4-methoxybenzenesulfonyl)-4-(2-methylmorpholin-4-yl)-5H-pyrrolo[3,2-d]pyrimidin-6-amine] yielded a concentration giving a half-maximal response (EC50) of 0.115 µM.

Molecule `COc1ccc(S(=O)(=O)c2c(N)[nH]c3c(N4CCOC(C)C4)ncnc23)cc1F` (stereo not drawn) [Example 124, 7-(3-fluoro-4-methoxybenzenesulfonyl)-4-(2-methylmorpholin-4-yl)-5H-pyrrolo[3,2-d]pyrimidin-6-amine] had an EC50 of 0.063 µM.

Molecule `CC1CN(c2ncnc3c(S(=O)(=O)Cc4ccccc4)c(N)[nH]c23)CCO1` (stereo not drawn) [Example 125, 4-(2-methylmorpholin-4-yl)-7-phenylmethanesulfonyl-5H-pyrrolo[3,2-d]pyrimidin-6-amine] returned an EC50 of 5.52 µM.

The molecule `CC(C)Oc1ccc(S(=O)(=O)c2c(N)[nH]c3c(N4CCOC(C)C4)ncnc23)cc1` (stereo not drawn) [Example 126, 4-(2-methylmorpholin-4-yl)-7-[4-(propan-2-yloxy)benzenesulfonyl]-5H-pyrrolo[3,2-d]pyrimidin-6-amine] came in with a 50% effective concentration (EC50) of 0.053 µM.

The molecule `Nc1[nH]c2c(C3=CCC(F)(F)CC3)ncnc2c1S(=O)(=O)c1ccccc1` [Example 127, 7-(benzenesulfonyl)-4-(4,4-difluorocyclohex-1-en-1-yl)-5H-pyrrolo[3,2-d]pyrimidin-6-amine] gave a half-maximal effective concentration (EC50) of 0.036 µM.

On to `Nc1[nH]c2c(-n3cccn3)ncnc2c1S(=O)(=O)c1ccccc1` [Example 128, 7-(benzenesulfonyl)-4-(1H-pyrazol-1-yl)-5H-pyrrolo[3,2-d]pyrimidin-6-amine], for which the EC50 amounted to 0.797 µM.

`COc1ccc(S(=O)(=O)c2c(N)[nH]c3c(N4CCOC(C)(C)C4)ncnc23)cc1` [Example 129, 4-(2,2-dimethylmorpholin-4-yl)-7-(4-methoxybenzenesulfonyl)-5H-pyrrolo[3,2-d]pyrimidin-6-amine] registered an EC50 of 0.033 µM.

Consider `COc1ccc(S(=O)(=O)c2c(N)[nH]c3c(N4C[C@@H](C)O[C@@H](C)C4)ncnc23)cc1` [Example 130, 4-[(2R,6S)-2,6-dimethylmorpholin-4-yl]-7-(4-methoxybenzenesulfonyl)-5H-pyrrolo[3,2-d]pyrimidin-6-amine], for which the EC50 worked out at 0.02 µM.

The molecule `Nc1[nH]c2c(C3CCCCC3)nc(C3CC3)nc2c1S(=O)(=O)c1ccccc1` [Example 131, 7-(benzenesulfonyl)-4-cyclohexyl-2-cyclopropyl-5H-pyrrolo[3,2-d]pyrimidin-6-amine] registered an EC50 of 0.166 µM.

With `Nc1[nH]c2c(N3CC4CCC(C3)O4)ncnc2c1S(=O)(=O)c1ccccc1` [Example 132, 7-(benzenesulfonyl)-4-{8-oxa-3-azabicyclo[3.2.1]octan-3-yl}-5H-pyrrolo[3,2-d]pyrimidin-6-amine], the EC50 was determined as 1.51 µM.

As for `Nc1[nH]c2c(N3CCO[C@H](c4ccccc4)C3)ncnc2c1S(=O)(=O)c1ccccc1` [Example 133, 7-(benzenesulfonyl)-4-[(2R)-2-phenylmorpholin-4-yl]-5H-pyrrolo[3,2-d]pyrimidin-6-amine], the EC50 came to 0.024 µM.

In general, EC50 refers to the concentration that produces a half-maximal response. A higher EC50 goes with lower potency in that assay.
